Experimental data: patent US20260232578A1, “COMPOSITIONS AND METHODS FOR TRANSMUCOSAL ABSORPTION” (Tonix Pharma Limited, priority 2012, published 2026)
Where “and” joins values, the source holds several entries; their conditions need not be identical. Equal entries are not always repeated.

Experiments:
5-HT2C receptor = target: T1, 5-HT2C receptor (Homo sapiens, UniProt P28335); experiment: Equilibrium receptor binding, recombinant human receptor
T1 construct: expressed in transfected cells
T1 sequence (P28335 33-458): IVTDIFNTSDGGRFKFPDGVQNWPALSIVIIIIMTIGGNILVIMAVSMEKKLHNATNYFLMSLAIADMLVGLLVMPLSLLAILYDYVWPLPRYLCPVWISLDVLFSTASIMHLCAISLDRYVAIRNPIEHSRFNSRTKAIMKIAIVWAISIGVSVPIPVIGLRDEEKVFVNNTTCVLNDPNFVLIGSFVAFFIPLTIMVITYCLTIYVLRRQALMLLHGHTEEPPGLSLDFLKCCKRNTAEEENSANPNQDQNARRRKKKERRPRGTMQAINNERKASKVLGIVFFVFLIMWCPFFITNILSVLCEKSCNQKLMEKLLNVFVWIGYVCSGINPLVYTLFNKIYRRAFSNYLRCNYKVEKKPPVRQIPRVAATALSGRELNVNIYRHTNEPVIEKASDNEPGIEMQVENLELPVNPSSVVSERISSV

dopamine (D) transporter = dopamine (D) transporter (Homo sapiens, UniProt Q01959); experiment: biochemical
muscarinic M1 receptor [1] = target: T2, muscarinic M1 receptor (Homo sapiens, UniProt P11229); experiment: G-protein-dependent signal transduction, intracellular Ca2+ mobilization; type: cell-based; design: expressed in transfected cells; settings: for IC50: M1, Ca2+ mobilization, read-out: IC50, functional antagonist
T2 sequence (P11229 1-460): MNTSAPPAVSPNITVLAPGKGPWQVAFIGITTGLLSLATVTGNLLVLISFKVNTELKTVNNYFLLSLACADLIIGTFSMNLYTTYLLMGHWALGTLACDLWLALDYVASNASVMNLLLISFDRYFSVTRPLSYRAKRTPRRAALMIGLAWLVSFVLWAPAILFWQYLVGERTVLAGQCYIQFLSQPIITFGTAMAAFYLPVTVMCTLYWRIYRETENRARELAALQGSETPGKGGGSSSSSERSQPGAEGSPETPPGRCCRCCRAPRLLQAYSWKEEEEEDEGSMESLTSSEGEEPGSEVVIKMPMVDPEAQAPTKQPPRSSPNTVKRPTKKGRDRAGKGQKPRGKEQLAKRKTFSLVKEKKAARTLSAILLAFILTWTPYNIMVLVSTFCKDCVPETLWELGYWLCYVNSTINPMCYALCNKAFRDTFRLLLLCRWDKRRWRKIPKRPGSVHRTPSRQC

Sigma 1 = Sigma 1 (Homo sapiens, UniProt Q99720); experiment: Equilibrium binding (Table 69)
D5 = D5 (Homo sapiens, UniProt P21918); experiment: Equilibrium receptor binding, recombinant human receptor
D2S = target: T3, D2S (Homo sapiens, UniProt P14416); experiment: as above
T3 construct: expressed in transfected cells

histamine H1 receptor = target: T4, histamine H1 receptor (Homo sapiens, UniProt P35367); experiment: as above; settings: for Ki: H1
T4 construct: expressed in transfected cells

muscarinic M1 receptor [2] = target: T2, muscarinic M1 receptor; experiment: G-protein-independent signal transduction, β-arrestin signaling; type: cell-based; design: expressed in transfected cells; settings: for IC50: M1, β-arrestin signaling, read-out: IC50, functional antagonist
5-HT6 = 5-HT6 (Homo sapiens, UniProt P50406); experiment: Equilibrium receptor binding, recombinant human receptor; design: expressed in transfected cells
5-HT2A [3] = target: T5, 5-HT2A (Homo sapiens, UniProt P28223); experiment: biochemical; type: binding; settings: for Ki: 5-HT2A
T5 construct: expressed in transfected cells

α2B = α2B (Homo sapiens, UniProt P18089); experiment: Functional antagonism, cAMP production
5-HT transporter = 5-HT transporter (Homo sapiens, UniProt P31645); experiment: Equilibrium binding to transporters (FIG. 19); settings: Serotonin TP (transporter)
5-HT2A [4] = target: T5, 5-HT2A; experiment: G-protein-independent signal transduction, β-arrestin signaling; type: cell-based; settings: for IC50: β-arrestin signaling, read-out: IC50, functional antagonist
dopamine D1 receptor = target: T6, dopamine D1 receptor (Homo sapiens, UniProt P21728); experiment: Equilibrium receptor binding, recombinant human receptor
T6 construct: expressed in transfected cells

[5] = target: T7, adrenergic alpha-2A receptor (Alpha2A) (Homo sapiens, UniProt P08913); experiment: as above
T7 construct: expressed in transfected cells
T7 sequence (P08913 1-465): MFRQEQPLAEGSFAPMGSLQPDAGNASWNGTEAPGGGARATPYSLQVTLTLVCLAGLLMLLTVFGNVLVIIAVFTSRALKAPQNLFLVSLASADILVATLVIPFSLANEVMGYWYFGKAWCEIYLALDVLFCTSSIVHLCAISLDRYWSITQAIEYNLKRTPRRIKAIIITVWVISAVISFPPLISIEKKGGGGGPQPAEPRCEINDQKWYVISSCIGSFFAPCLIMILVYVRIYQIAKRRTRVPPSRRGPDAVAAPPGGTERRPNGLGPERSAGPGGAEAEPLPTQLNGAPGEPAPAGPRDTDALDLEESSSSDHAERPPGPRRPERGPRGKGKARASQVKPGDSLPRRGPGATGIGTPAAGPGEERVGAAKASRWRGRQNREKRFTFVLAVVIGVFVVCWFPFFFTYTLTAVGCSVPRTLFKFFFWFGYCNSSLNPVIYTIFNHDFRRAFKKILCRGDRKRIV

α1B = α1B (Homo sapiens, UniProt P35368); experiment: Functional antagonism, G-protein-dependent signal transduction (Table 69)
[6] = read-out: IC50 (nM) (Antagonist)

T5 sequence (P28223 whole entry): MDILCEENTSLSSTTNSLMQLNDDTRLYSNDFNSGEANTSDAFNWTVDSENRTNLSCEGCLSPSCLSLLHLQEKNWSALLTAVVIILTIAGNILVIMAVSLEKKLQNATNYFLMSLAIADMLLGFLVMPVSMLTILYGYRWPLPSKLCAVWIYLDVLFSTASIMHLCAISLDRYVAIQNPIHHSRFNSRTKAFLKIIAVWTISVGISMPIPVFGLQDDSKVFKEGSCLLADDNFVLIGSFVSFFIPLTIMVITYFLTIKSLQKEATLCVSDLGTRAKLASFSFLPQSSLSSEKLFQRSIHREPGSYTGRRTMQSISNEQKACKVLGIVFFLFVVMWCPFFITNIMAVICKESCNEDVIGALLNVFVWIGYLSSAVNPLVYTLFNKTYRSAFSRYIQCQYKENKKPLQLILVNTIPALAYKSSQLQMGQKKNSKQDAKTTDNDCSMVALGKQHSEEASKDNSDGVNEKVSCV
T4 sequence (P35367 whole entry): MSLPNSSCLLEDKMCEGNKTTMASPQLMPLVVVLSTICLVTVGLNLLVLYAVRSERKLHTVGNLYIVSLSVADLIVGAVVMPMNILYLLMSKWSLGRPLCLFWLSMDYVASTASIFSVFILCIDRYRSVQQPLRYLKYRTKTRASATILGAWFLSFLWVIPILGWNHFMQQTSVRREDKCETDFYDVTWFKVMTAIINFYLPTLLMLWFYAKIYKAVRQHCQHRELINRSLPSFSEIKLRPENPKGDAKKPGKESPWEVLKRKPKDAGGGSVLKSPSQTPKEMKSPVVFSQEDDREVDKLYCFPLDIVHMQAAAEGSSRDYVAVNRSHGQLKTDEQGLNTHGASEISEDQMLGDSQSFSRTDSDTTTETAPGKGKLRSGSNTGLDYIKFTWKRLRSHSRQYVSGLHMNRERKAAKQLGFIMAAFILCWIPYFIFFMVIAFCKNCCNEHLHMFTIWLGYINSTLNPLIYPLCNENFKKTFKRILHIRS
T6 sequence (P21728 whole entry): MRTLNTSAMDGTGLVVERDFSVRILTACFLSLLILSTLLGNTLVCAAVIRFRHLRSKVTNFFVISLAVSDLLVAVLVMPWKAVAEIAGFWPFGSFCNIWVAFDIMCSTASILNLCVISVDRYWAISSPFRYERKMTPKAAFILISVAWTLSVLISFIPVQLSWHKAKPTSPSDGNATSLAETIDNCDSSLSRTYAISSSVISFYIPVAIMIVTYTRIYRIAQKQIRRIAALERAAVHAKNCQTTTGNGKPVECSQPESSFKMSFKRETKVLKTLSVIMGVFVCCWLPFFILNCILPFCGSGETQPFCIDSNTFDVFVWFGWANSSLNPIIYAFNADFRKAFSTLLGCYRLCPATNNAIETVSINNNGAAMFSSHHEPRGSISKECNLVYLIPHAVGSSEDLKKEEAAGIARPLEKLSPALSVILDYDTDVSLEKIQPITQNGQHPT
α2B, sequence (P18089 whole entry): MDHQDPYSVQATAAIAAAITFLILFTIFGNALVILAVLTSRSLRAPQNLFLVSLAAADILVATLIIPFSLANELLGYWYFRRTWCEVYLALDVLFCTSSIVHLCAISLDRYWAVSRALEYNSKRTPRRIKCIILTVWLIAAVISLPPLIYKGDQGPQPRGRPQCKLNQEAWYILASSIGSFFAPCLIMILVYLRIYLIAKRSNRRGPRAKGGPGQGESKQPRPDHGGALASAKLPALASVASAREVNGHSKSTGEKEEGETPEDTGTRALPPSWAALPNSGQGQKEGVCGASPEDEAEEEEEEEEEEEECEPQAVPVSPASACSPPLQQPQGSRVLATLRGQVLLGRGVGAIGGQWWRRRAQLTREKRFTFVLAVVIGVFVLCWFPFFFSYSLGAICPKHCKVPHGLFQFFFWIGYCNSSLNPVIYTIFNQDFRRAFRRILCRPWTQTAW
Sigma 1, sequence (Q99720 whole entry): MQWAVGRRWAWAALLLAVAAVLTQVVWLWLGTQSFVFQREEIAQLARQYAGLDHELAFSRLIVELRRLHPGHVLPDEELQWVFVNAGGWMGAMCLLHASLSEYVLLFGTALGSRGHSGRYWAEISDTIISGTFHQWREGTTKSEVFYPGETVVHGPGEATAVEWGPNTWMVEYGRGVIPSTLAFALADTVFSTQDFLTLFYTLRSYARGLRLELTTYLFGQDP
5-HT transporter, sequence (P31645 whole entry): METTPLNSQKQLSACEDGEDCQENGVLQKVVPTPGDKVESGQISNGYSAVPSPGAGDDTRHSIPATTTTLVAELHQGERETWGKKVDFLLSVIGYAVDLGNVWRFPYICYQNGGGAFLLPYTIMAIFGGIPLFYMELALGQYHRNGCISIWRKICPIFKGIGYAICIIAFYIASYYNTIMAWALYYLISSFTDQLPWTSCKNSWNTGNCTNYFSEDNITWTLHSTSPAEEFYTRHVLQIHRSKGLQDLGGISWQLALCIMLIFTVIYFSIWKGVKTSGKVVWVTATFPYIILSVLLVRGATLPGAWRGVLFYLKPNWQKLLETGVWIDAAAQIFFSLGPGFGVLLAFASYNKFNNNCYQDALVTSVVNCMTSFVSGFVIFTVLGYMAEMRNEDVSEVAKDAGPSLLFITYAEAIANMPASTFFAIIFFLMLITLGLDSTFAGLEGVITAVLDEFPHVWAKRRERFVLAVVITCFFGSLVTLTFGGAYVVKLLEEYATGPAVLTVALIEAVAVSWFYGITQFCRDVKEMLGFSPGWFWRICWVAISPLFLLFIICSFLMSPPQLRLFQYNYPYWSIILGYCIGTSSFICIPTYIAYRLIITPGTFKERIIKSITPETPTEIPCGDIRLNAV
α1B, sequence (P35368 whole entry): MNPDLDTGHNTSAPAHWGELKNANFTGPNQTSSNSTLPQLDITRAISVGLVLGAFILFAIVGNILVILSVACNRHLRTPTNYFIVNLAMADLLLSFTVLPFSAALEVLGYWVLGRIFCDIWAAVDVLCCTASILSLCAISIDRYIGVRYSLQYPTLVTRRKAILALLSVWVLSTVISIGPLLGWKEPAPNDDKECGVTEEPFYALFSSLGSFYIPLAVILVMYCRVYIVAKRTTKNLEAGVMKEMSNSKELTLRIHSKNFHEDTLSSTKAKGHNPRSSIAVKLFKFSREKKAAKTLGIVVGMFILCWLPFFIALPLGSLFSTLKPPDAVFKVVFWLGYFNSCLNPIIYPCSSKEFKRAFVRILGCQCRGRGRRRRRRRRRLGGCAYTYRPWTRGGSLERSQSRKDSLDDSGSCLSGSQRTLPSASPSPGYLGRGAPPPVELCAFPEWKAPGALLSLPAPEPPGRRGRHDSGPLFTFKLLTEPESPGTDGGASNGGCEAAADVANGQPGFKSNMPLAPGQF
T3 sequence (P14416 1-414 isoform P14416-2): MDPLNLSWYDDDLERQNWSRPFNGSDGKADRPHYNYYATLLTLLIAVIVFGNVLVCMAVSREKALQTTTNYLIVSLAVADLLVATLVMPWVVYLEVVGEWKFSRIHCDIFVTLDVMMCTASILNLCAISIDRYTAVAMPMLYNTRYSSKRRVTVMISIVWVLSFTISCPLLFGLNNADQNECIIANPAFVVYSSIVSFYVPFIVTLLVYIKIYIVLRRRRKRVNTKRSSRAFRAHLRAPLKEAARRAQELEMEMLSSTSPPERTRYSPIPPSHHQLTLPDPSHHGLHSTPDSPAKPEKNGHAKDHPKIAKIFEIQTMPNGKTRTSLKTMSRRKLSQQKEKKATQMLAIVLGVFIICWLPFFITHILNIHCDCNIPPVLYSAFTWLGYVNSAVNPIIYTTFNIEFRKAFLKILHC
dopamine (D) transporter, sequence (Q01959 whole entry): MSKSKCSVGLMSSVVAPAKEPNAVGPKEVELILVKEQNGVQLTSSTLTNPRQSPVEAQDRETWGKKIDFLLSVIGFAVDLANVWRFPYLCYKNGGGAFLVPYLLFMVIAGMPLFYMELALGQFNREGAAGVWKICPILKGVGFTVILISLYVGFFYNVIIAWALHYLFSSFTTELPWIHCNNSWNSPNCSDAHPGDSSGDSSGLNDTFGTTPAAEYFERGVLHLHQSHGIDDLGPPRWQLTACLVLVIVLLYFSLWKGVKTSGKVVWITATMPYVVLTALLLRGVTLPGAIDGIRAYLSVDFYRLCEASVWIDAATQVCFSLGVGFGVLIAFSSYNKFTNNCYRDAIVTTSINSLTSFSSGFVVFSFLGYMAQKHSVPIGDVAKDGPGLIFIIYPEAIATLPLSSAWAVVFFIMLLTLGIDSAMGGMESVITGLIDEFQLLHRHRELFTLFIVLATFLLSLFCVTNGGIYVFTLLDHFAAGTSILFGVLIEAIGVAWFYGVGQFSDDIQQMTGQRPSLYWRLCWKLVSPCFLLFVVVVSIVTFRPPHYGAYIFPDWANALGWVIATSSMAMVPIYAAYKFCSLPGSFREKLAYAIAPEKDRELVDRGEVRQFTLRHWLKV
5-HT6, sequence (P50406 whole entry): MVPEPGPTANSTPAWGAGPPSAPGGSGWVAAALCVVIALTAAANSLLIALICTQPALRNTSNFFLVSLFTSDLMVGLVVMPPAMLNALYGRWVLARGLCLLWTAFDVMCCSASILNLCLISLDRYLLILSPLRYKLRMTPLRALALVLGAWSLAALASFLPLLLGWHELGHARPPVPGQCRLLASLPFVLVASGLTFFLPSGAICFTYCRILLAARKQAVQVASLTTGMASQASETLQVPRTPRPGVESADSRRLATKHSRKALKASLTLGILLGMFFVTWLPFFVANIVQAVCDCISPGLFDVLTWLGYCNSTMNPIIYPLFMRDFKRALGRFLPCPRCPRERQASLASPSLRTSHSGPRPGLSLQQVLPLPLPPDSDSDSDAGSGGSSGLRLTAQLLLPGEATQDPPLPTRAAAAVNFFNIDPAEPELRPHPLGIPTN

Structure (SMILES) | Ki (5-HT2C receptor) | Ki (dopamine (D) transporter) [µM] | IC50 (muscarinic M1 receptor [1]) [µM] | Ki (D5) [µM] | Ki (D2S) [µM] | Ki (histamine H1 receptor) | IC50 (muscarinic M1 receptor [2]) [µM] | Ki (5-HT6) [µM] | Ki (5-HT2A [3]) | IC50 (α2B) [µM] | IC50 (5-HT2A [4]) [µM] | Ki (dopamine D1 receptor) [µM] | Ki [5] [µM] | IC50 (α1B) [µM] | other results
CNCCC=C1c2ccccc2C=Cc2ccccc21 [norcyclobenzaprine, 3-(5H-dibenzo[a,d]cyclohepten-5-ylidene)-N-methyl-1-propanamine] | 0.043 µM | > 10 | 0.0087 | 0.28 | 0.41 | 0.0056 µM and 0.0059 µM | 0.266 | 1.4 | 0.013 µM and 0.0132 µM | 41 | 0.181 | 0.057 | 1.8 | 0.79 | Hill plot ratio (Hill slope) (5-HT2C receptor; equilibrium binding): 1.40; Four parameter Hill slope (or fit slope) ratio; Ca2+ signaling (muscarinic M1 receptor [1]; M1): 0.62; Ki (Sigma 1): 0.12 µM; Hill plot ratio (Hill slope) (histamine H1 receptor): 1.04; Four parameter Hill slope (or fit slope) ratio; β-arrestin signaling (muscarinic M1 receptor [2]; M1): 1.05; Hill plot ratio (Hill slope) (5-HT2A [3]): 0.50; Ki (5-HT transporter): 0.029 µM; Four parameter Hill slope (or fit slope) ratio; β-arrestin signaling (5-HT2A [4]): 1.11; Hill plot ratio (Hill slope) (dopamine D1 receptor; equilibrium binding): 1.15
CN(C)CCC=C1c2ccccc2C=Cc2ccccc21 [cyclobenzaprine, 3-(5H-dibenzo[a,d]cyclohepten-5-ylidene)-N,N-dimethyl-1-propanamine] | 0.0052 µM and 0.043 µM | > 10 | 0.00071 | 0.06 | 0.12 | 0.0013 µM | 0.081 | 0.48 | 0.0052 µM and 0.0051 µM | 9.8 | 0.099 | 0.012 | 0.36 | 0.53 | IC50 (Sigma 1; [6]): 790 nM; IC50 (5-HT transporter; [6]): 91 nM
